Source: US3984393A, “Aminoglycoside antibiotics” (The Upjohn Company, priority 1975, dated 1976)
Converted amounts (≈) assume the structure as drawn. Read-outs that look alike come from different tables or passages of the source.

Legend:
B. cereus = experiment: standard disc plate assay, 12.5 mm paper discs (zone of inhibition), B. cereus; assay type: cell-based, Bacillus cereus; conditions: for zone of inhibition at 10000 µg/mL: 10 mg/ml; for active against Bacillus cereus: conclusion in words from the above results
From the text: (§1) The novel intermediates, disclosed herein, are useful to make novel aminoglycoside antibiotics. These novel aminoglycoside antibiotics are antibacterially active, and, thus, they can be used in various environments to eradicate or control sensitive bacteria. Following are in vitro antibacterial test results for representative compounds of the subject invention. The results were obtained with a standard disc plate assay using 12.5 mm paper discs.

B. subtilis = experiment: standard disc plate assay, 12.5 mm paper discs (zone of inhibition), B. subtilis; assay type: cell-based, Bacillus subtilis
From the text: as §1

S. aureus UC 76 = experiment: standard microplate test in BHI Agar (MIC), S. aureus UC 76; assay type: cell-based, Staphylococcus aureus; conditions: Staphylococcus aureus, UC76, 20 h
Procedure: (§2) Compounds were also tested in a standard microplate test in Brain Heart Infusion (BHI) Agar, at a concentration of 1 mg/ml. Incubation is at 37° and end points are read at 20 hours. Brain Heart Infusion Agar (supplied by Difco Laboratories, Detroit, Michigan, U.S.A.) has the following composition:
(§3) Compounds (7β), (7α) and (9) were tested again along with compounds (11) and (14β) against a neamine control using the same conditions as given above.

S. aureus UC 570 = experiment: standard microplate test in BHI Agar (MIC), S. aureus UC 570; assay type: cell-based; conditions: Staphylococcus aureus, UC570, 20 h, 37°, first table, read-out: Minimum Inhibitory Concentration
Procedure: as §2, with “composition: […]” for “composition:”

S. aureus UC 746 = experiment: standard microplate test in BHI Agar (MIC), S. aureus UC 746; assay type: cell-based; conditions: Staphylococcus aureus, UC746, 37°, 20 h, first table, read-out: Minimum Inhibitory Concentration
Procedure: as §2, with “composition: […]” for “composition:”

S. hemolyticus UC 152 = experiment: standard microplate test in BHI Agar (MIC), S. hemolyticus UC 152; assay type: cell-based, Streptococcus hemolyticus; conditions: Streptococcus pyogenes, UC152, 20 h
Procedure: as §2, §3

St. faecalis UC 694 = experiment: standard microplate test in BHI Agar (MIC), St. faecalis UC 694; assay type: cell-based; conditions: Enterococcus faecalis, UC694, 20 h, read-out: Minimum Inhibitory Concentration
Procedure: as §2, §3

E. coli UC 45 = experiment: standard microplate test in BHI Agar (MIC), E. coli UC 45; assay type: cell-based; conditions: Escherichia coli, UC45, 20 h
Procedure: as §2, §3

P. vulgaris UC 93 = experiment: standard microplate test in BHI Agar (MIC), P. vulgaris UC 93; assay type: cell-based; conditions: Proteus vulgaris, UC93, 20 h
Procedure: as §2, §3

K. pneumoniae UC 58 = experiment: standard microplate test in BHI Agar (MIC), K. pneumoniae UC 58; assay type: cell-based; conditions: Klebsiella pneumoniae, UC58, 20 h
Procedure: as §2, §3

S. schottmuelleri UC 126 = experiment: standard microplate test in BHI Agar (MIC), S. schottmuelleri UC 126; assay type: cell-based; conditions: 20 h, BHI agar, 37°, first table, read-out: Minimum Inhibitory Concentration
Procedure: as §2, §3

Ps. aeruginosa UC 95 = experiment: standard microplate test in BHI Agar (MIC), Ps. aeruginosa UC 95; assay type: cell-based; conditions: Pseudomonas aeruginosa, UC95, 20 h, Ps. aeruginosa UC 95, read-out: Minimum Inhibitory Concentration
Procedure: as §2, §3

D. pneumoniae UC 41 = experiment: standard microplate test in BHI Agar (MIC), D. pneumoniae UC 41; assay type: cell-based; conditions: Streptococcus pneumoniae, UC41, 20 h
Procedure: as §2, §3

P. mirabilis A-63 = experiment: standard microplate test in BHI Agar (MIC), P. mirabilis A-63; assay type: cell-based; conditions: Proteus mirabilis, A63, 20 h; P. mirabilis A-63; retest table, group (9), (11), (7α), neamine control; read-out: Minimum Inhibitory Concentration
Procedure: as §2, §3

P. morgani UC 3186 = experiment: standard microplate test in BHI Agar (MIC), P. morgani UC 3186; assay type: cell-based; conditions: 20 h, retest table, group (9), (11), (7α), neamine control
Procedure: as §2, §3

P. rettgeri UC 339 = experiment: standard microplate test in BHI Agar (MIC), P. rettgeri UC 339; assay type: cell-based; conditions: Providencia rettgeri, UC339, 20 h; P. rettgeri UC 339; retest table, group (9), (11), (7α), neamine control; read-out: Minimum Inhibitory Concentration
Procedure: as §2, §3

S. marcescens UC 131 = experiment: standard microplate test in BHI Agar (MIC), S. marcescens UC 131; assay type: cell-based; conditions: Serratia marcescens, UC131, 20 h; S. marcescens UC 131; retest table, group (9), (11), (7α), neamine control; read-out: Minimum Inhibitory Concentration
Procedure: as §2, §3

S. flexneri UC 143 = experiment: standard microplate test in BHI Agar (MIC), S. flexneri UC 143; assay type: cell-based; conditions: Shigella flexneri, UC143, 20 h, retest table, group (9), (11), (7α), neamine control, read-out: Minimum Inhibitory Concentration
Procedure: as §2, §3

S. typhi TG-3 = experiment: standard microplate test in BHI Agar (MIC), S. typhi TG-3; assay type: cell-based; conditions: Salmonella enterica, 20 h, read-out: Minimum Inhibitory Concentration
Procedure: as §2, §3

[1] = S. hemolyticus UC 152, retest table, group (9), (11), (7α), neamine control, read-out: Minimum Inhibitory Concentration
[2] = S. faecalis UC 694, retest table, group (9), (11), (7α), neamine control
[3] = K. pneumoniae UC 58, retest table, group (9), (11), (7α), neamine control, read-out: Minimum Inhibitory Concentration
[4] = retest table, group (9), (11), (7α), neamine control

NC[C@H]1O[C@H](O[C@H]2[C@H](O)[C@@H](O[C@H]3O[C@H](CO)[C@@H](O)[C@H]3O)[C@H](N)C[C@@H]2N)[C@H](N)[C@@H](O)[C@@H]1O [(7α), 6-O-(α-D-Ribofuranosyl)neamine]
zone of inhibition at 5000 µg/mL (B. cereus; Bacillus cereus, B. cereus, 5 mg/ml): 25 mm | zone of inhibition at 10000 µg/mL (B. cereus; Bacillus cereus, B. cereus): 32 mm | active against Bacillus cereus (B. cereus): active | zone of inhibition at 5000 µg/mL (B. subtilis; Bacillus subtilis, B. subtilis, 5 mg/ml): 32 mm | zone of inhibition at 10000 µg/mL (B. subtilis; Bacillus subtilis, B. subtilis, 10 mg/ml): 34 mm | active against Bacillus subtilis (B. subtilis; conclusion in words from the above results): active | MIC (S. aureus UC 76; S. aureus 284 UC 76, BHI agar, 37°, 20 h, first table, read-out: Minimum Inhibitory Concentration): 1000 µg/mL (≈ 2200 µM) | MIC (S. aureus UC 76; read-out: Minimum Inhibitory Concentration, S. aureus UC 76, retest table, group (9), (11), (7α), neamine control): 62.5 µg/mL (≈ 138 µM) | MIC (S. aureus UC 570): 500 µg/mL (≈ 1100 µM) | MIC (S. aureus UC 746): 1000 µg/mL (≈ 2200 µM) | MIC (S. hemolyticus UC 152; read-out: Minimum Inhibitory Concentration, S. hemolyticus UC 152, BHI agar, 37°, 20 h, first table): 31.2 µg/mL (≈ 68.7 µM) | MIC (S. hemolyticus UC 152; [1]): 7.8 µg/mL (≈ 17.2 µM) | MIC (St. faecalis UC 694; [2]): 1000 µg/mL (≈ 2200 µM) | MIC (St. faecalis UC 694; St. faecalis UC 694, BHI agar, 37°, 20 h, first table): > 1000 µg/mL | MIC (E. coli UC 45; E. coli UC 45, BHI agar, 37°, 20 h, first table, read-out: Minimum Inhibitory Concentration): 500 µg/mL (≈ 1100 µM) | MIC (E. coli UC 45; read-out: Minimum Inhibitory Concentration, E. coli UC 45, retest table, group (9), (11), (7α), neamine control): 62.5 µg/mL (≈ 138 µM) | MIC (P. vulgaris UC 93; P. vulgaris UC 93, BHI agar, 37°, 20 h, first table, read-out: Minimum Inhibitory Concentration): 1000 µg/mL (≈ 2200 µM) | MIC (P. vulgaris UC 93; read-out: Minimum Inhibitory Concentration, P. vulgaris UC 93, retest table, group (9), (11), (7α), neamine control): 125 µg/mL (≈ 275 µM) | MIC (K. pneumoniae UC 58; read-out: Minimum Inhibitory Concentration, K. pneumoniae UC 58, BHI agar, 37°, 20 h, first table): 62.5 µg/mL (≈ 138 µM) | MIC (K. pneumoniae UC 58; [3]): 7.8 µg/mL (≈ 17.2 µM) | MIC (S. schottmuelleri UC 126): 500 µg/mL (≈ 1100 µM) | MIC (Ps. aeruginosa UC 95; BHI agar, 37°, 20 h, first table): > 1000 µg/mL | MIC (Ps. aeruginosa UC 95; [4]): 1000 µg/mL (≈ 2200 µM) | MIC (D. pneumoniae UC 41; D. pneumoniae UC 41, BHI agar, 37°, 20 h, first table, read-out: Minimum Inhibitory Concentration): > 1000 µg/mL | MIC (D. pneumoniae UC 41; read-out: Minimum Inhibitory Concentration, D. pneumoniae UC 41, retest table, group (9), (11), (7α), neamine control): 125 µg/mL (≈ 275 µM) | MIC (P. mirabilis A-63): 500 µg/mL (≈ 1100 µM) | MIC (P. morgani UC 3186; read-out: Minimum Inhibitory Concentration, P. morgani UC 3186): 125 µg/mL (≈ 275 µM) | MIC (P. rettgeri UC 339): 1000 µg/mL (≈ 2200 µM) | MIC (S. marcescens UC 131): 250 µg/mL (≈ 550 µM) | MIC (S. flexneri UC 143): 125 µg/mL (≈ 275 µM) | MIC (S. typhi TG-3): 62.5 µg/mL (≈ 138 µM)

NC[C@H]1O[C@H](O[C@H]2[C@H](O)[C@@H](O)[C@H](N)C[C@@H]2N)[C@H](N)[C@@H](O[C@@H]2O[C@H](CO)[C@@H](O)[C@H](O)[C@H]2O)[C@@H]1O [(11), 3'-O-(β-D-glucopyranosyl)neamine]
zone of inhibition at 10000 µg/mL (B. cereus; Bacillus cereus, B. cereus): 16 mm | active against Bacillus cereus (B. cereus): active | MIC (S. aureus UC 76; S. aureus UC 76, retest table, group (9), (11), (7α), neamine control, read-out: Minimum Inhibitory Concentration): 1000 µg/mL (≈ 2060 µM) | MIC (S. hemolyticus UC 152; [1]): 1000 µg/mL (≈ 2060 µM) | MIC (St. faecalis UC 694; [2]): 1000 µg/mL (≈ 2060 µM) | MIC (E. coli UC 45; E. coli UC 45, retest table, group (9), (11), (7α), neamine control, read-out: Minimum Inhibitory Concentration): 1000 µg/mL (≈ 2060 µM) | MIC (P. vulgaris UC 93; P. vulgaris UC 93, retest table, group (9), (11), (7α), neamine control, read-out: Minimum Inhibitory Concentration): 1000 µg/mL (≈ 2060 µM) | MIC (K. pneumoniae UC 58; [3]): 1000 µg/mL (≈ 2060 µM) | MIC (Ps. aeruginosa UC 95; [4]): 1000 µg/mL (≈ 2060 µM) | MIC (D. pneumoniae UC 41; D. pneumoniae UC 41, retest table, group (9), (11), (7α), neamine control, read-out: Minimum Inhibitory Concentration): 1000 µg/mL (≈ 2060 µM) | MIC (P. mirabilis A-63): 1000 µg/mL (≈ 2060 µM) | MIC (P. morgani UC 3186; P. morgani UC 3186, read-out: Minimum Inhibitory Concentration): 1000 µg/mL (≈ 2060 µM) | MIC (P. rettgeri UC 339): 1000 µg/mL (≈ 2060 µM) | MIC (S. marcescens UC 131): 1000 µg/mL (≈ 2060 µM) | MIC (S. flexneri UC 143): 1000 µg/mL (≈ 2060 µM) | MIC (S. typhi TG-3): 1000 µg/mL (≈ 2060 µM)
